From publication PMC9376091, “Identification of small molecules targeting homoserine acetyl transferase from Mycobacterium tuberculosis and Staphylococcus aureus” (Scientific Reports, 2022) come the findings set out here.

Bounds are passed on as bounds.

Broadly, the % inhibition is the change of the read-out against control, counted positive when it falls. As usually defined, the inhibition is the relative decrease from the control value, in per cent. A lower inhibition goes with a response near the control.

In one experiment the target is T1, S. aureus HSAT, HSAT homolog from S. aureus (Staphylococcus aureus, UniProt A0A447ZIT7).
T1 construct: gene metX; cloned in pET28b (His tag implied), expressed in E. coli BL-21 (DE3, plysS), Ni-NTA and gel filtration; 4QLO used for docking
T1 sequence (A0A447ZIT7 1-322): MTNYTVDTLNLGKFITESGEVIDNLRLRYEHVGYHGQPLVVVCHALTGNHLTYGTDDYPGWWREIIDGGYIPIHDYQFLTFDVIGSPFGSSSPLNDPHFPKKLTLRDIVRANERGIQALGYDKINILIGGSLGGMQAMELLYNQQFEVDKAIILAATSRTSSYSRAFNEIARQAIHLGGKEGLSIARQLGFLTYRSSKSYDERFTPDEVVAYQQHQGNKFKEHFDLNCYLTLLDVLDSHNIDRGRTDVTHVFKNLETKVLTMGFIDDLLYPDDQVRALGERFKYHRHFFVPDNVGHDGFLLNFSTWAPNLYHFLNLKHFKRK
As to the kind of experiment: DTNB CoA release endpoint assay. Format: biochemical. Conditions: 1.0 mM L-homoserine, 1.0 mM acetyl-CoA, 5.0 mM MgCl2, Tris-Cl pH 7.4, 37 °C.
For `Oc1cc(CNC2CCCCC2)c(O)cc1CNC1CCCCC1` [compound 3, NSC48443], the “% inhibition at 100 μM” value was > 60%. The same measure, in the same setting: with `C/C(=N\NC(=S)N(C)C)c1ccccn1.[Cu][Br]` [compound 4, NSC635448] the figure was > 60%; with `Cc1ccc(S(=O)(=O)SC/C=C/CSS(=O)(=O)c2ccc(C)cc2)cc1` [compound 5, NSC624158], > 60%.

In a further experiment the target is T2, HSAT, MetX, Rv3341, (His)6-MetX, (His)6-Rv3341 (Mycobacterium tuberculosis, UniProt P9WJY9).
T2 construct: gene metXA
T2 sequence (P9WJY9 whole entry, looked up): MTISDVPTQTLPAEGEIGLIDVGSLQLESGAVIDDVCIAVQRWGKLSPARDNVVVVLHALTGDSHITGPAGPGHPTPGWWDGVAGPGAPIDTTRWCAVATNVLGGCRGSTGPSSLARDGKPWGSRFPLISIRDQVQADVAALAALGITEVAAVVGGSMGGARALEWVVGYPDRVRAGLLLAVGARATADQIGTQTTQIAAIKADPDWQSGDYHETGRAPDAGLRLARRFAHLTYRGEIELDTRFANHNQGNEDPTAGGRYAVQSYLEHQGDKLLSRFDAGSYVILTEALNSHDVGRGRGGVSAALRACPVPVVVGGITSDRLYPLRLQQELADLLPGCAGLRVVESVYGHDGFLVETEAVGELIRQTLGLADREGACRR
As to the kind of experiment: DTNB CoA release endpoint assay. It is filed as biochemical.
Details: not given
Consider `CCOC(=O)/C(C#N)=C1\SS/C(=C(/C#N)C(=O)OCC)S1` [compound 2, NSC98363], for which the inhibition at 100 µM was > 50%. For `Oc1cc(CNC2CCCCC2)c(O)cc1CNC1CCCCC1` [compound 3, NSC48443], the inhibition at 100 µM is > 50%. Take `Cc1ccc(S(=O)(=O)SC/C=C/CSS(=O)(=O)c2ccc(C)cc2)cc1` [compound 5, NSC624158]: the inhibition at 100 µM is > 50%. Same read-out and setting: with `COc1cc(-c2ccc(Nc3ccccc3C(=O)O)c(OC)c2)ccc1Nc1ccccc1C(=O)O` [compound 6, NSC73735] the figure was > 50%; with `O=Nc1c(-c2cccc([N+](=O)[O-])c2)nc2ncccn12` [compound 7, NSC369066], > 50%. Turning to `Oc1cc(-n2cccn2)c(O)cc1-n1cccn1` [compound 8, NSC645987], the inhibition at 100 µM was > 50%.

The experiment is the same for the next values; noted with them: 1.0 mM L-homoserine, 1.0 mM acetyl-CoA, 5.0 mM MgCl2, Tris-Cl pH 7.4, 37 °C.
Turning to `C/C(=N\NC(=S)N(C)C)c1ccccn1.[Cu][Br]` [compound 4, NSC635448], the “% inhibition at 100 μM” value is > 50%.
